The values below come from patent US20240199651A1, “ANTIBACTERIAL COMPOUNDS” (JANSSEN SCIENCES IRELAND UNLIMITED COMPANY, priority 2021, published 2024).

Data set [1] can be described thus: LM CLint (microsomal stability), mouse. It counts as in vitro ADME. Particulars: for microsomal CLint at 1 µM: microsomes. The source says: (§1) The compounds of the invention/examples may have advantages associated with in vitro potency, kill kinetics (i.e. bactericidal effect) in vitro, PK properties, food effect, safety/toxicity (including liver toxicity, coagulation, 5-LO oxygenase), metabolic stability, Ames II negativity, MNT negativity, aqueous based solubility (and ability to formulate) and/or cardiovascular effect e.g. on animals (e.g. anesthetized guinea pig). Data that is generated/calculated may be obtained using standard methods/assays, for instance that are available in the literature or which may be performed by a supplier (e.g. Microsomal Stability Assay—Cyprotex, Mitochondrial toxicity (Glu/Gal) assay—Cyprotex, as well as literature CYP cocktail inhibition assays). GSH can be measured (reactive metabolites, glucuronidation) to observe if a dihydrodiol is observed by LCMS (fragmentation ions), which would correspond to a dihydroxylation on the core heterocycle.
(§2) CLint Microsomes (μL/Min/Mg) in Dog (d), Human (h), Mouse (m) and Rat (r) (all at 1 μm)

Data set [2] in a line: LM CLint (microsomal stability), human. It counts as in vitro ADME. Particulars: for microsomal CLint at 1 µM: liver microsomes, read-out: CLint Microsomes, Human (h).
Excerpt: as §1, §2
In general terms: Liver microsomes are vesicles of endoplasmic reticulum, rich in cytochrome P450 enzymes.

A short description of data set [3]: in vitro. It counts as in vitro ADME. The note with it: human, plasma. The source says:
PPB % Free (Human at 1 μm)

In data set [4] the test system is Mycobacterium tuberculosis strain EH4.0 expressing green-fluorescent protein (GFP). As to the kind of experiment: microbe, parasite or virus in culture. It counts as cell-based.
Data set [5] can be described thus: Mitochondrial toxicity (Glu/Gal) assay. It counts as cell-based. On the set-up: Glu/Gal: Glu / Glu/Gal: Gal: unit not given here. The note with it: for Glu/Gal: Glu: first value (Glu); for Glu/Gal: Gal: second value (Gal).
A short description of data set [6]: Chemical stability testing (LCMS). It counts as physicochemical. Particulars: for chemical stability, purity by LCMS: 0.065 mg/mL. On the procedure:
• Add 3 μl of a 10 mM DMSO stock solution to 1 ml of the following solvents in a 1.5 ml HPLC vial. • DMSO (reference solution) • H2O/Acetonitril 1/1 (assay solution) • 0.1N HCl/Acetonitril 1/1 (assay solution) • Mix well, […] LCMS • Compare the chromatograms of the two assay solutions with the reference solution and report the additional peaks as degradation peaks

For data set [7], the system named is MDCK. As to the kind of experiment: MDCK permeability (AB+inh, BA/AB). Particulars: with inhibitor.
Data set [8] can be described thus: LM CLint (microsomal stability), rat. It counts as in vitro ADME. Particulars: for microsomal CLint at 1 µM: microsomes.
Excerpt: as §1, §2

A short description of data set [9]: AMES II. Particulars: score. It counts as cell-based.
Excerpt: as §1

Data set [10] is described as follows: LM CLint (microsomal stability), dog. It counts as in vitro ADME. The note with it: for microsomal CLint at 1 µM: microsomes.
Excerpt: as §1, §2

For data set [11], the system named is M. tuberculosis H37Rv. The note with it: M. tuberculosis H37Rv inside macrophages; cited from earlier work.
Setting [12] is: 1 μm, read-out: CLint Microsomes, Mouse (m).

Converted amounts (≈) assume the structure as drawn. Like-named read-outs stand apart in the source and are kept apart here.

Turning to `CCc1nc2ccc(Cl)cn2c1C(=O)NCc1ccc(-c2nc3n(n2)CCN(S(=O)(=O)C(F)(F)F)C3)cc1` [Compound 1], the microsomal CLint at 1 µM came to 49.2 µL/min/mg in [1] (setting [12]) and 30.3 µL/min/mg in data set [2]. The fraction unbound at 1 µM in data set [3] worked out at 0.00047. Moreover, the IC50 in data set [4] (Mycobacterium tuberculosis, Test 1 (and/or Test 2), M. tuberculosis) is 7.76 nM; in data set [5] (read-out: IC50, gal), over 200 µM; in data set [5] (read-out: IC50, glu), over 200 µM.
Turning to `CCc1nc2ncc(Cl)cn2c1C(=O)NCc1ccc(-c2nc3n(n2)CCN(S(=O)(=O)C(F)(F)F)C3)cc1` [Compound 2], the microsomal CLint at 1 µM in [1], in data set [8] and in data set [10] was under 7.7 µL/min/mg in each case. Further, the “chemical stability, purity by LCMS” value is reported as 99.56% in data set [6] (0 h); 99.38% in data set [6] (0.25 h); 99.21% in data set [6] (0.5 h); 98.89% in data set [6] (1 h); 98.28% in [6] (2 h); 97.1% in data set [6] (4 h). In addition, the “chemical stability, % by LCMS” value was 100% in data set [6] (72 h, 30 µM) and 90.52% in [6] (72 h, 30 µM, pH 1.6). In data set [7], the “MDCK AB+inh” value stood at 32.5. Moreover, in [5], the “Glu/Gal: Glu” value is over 100. Besides, the IC50 was over 100 µM in [5] (read-out: IC50, gal) and over 100 µM in data set [5] (read-out: IC50, glu). For the same compound, the “Glu/Gal: Gal” value in data set [5] is recorded as over 100. For the same compound, in data set [8] (1 μm), the “CLint Microsomes, Rat (r)” value is listed as under 7.7 μL/Min/Mg. Further, the “AMES II” value in data set [9] was determined as 1. Moreover, the “CLint Microsomes, Dog (d)” value in [10] (1 μm) is under 7.7 μL/Min/Mg.
Compound `CCc1nc2ncc(C)cn2c1C(=O)NCc1ccc(-c2nc3n(n2)CCN(S(=O)(=O)C(F)(F)F)C3)c(F)c1` [Compound 7] had a microsomal CLint at 1 µM in data set [1] of under 7.7 µL/min/mg. The “chemical stability, % by LCMS” value in data set [6] (72 h, 30 µM) is 100%; in data set [6] (72 h, 30 µM, pH 1.6), 100%. Further, the “MDCK AB+inh” value in [7] is listed as 21.4. Also, the “Glu/Gal: Glu” value in data set [5] is over 200. The IC50 in [5] (read-out: IC50, gal) was over 200 µM; in data set [5] (read-out: IC50, glu), over 200 µM. Also, the “Glu/Gal: Gal” value in data set [5] is recorded as over 200.
For `Cc1cnc2nc(C3CC3)c(C(=O)NCc3ccc(-c4nc5n(n4)CCN(S(=O)(=O)C(F)(F)F)C5)cc3)n2c1` [Compound 42], the microsomal CLint at 1 µM in [1] (setting [12]) is 20.4 µL/min/mg; in [2] it was 47.1 µL/min/mg. Besides, the “chemical stability, % by LCMS” value worked out at 100% in data set [6] (48 h, 30 µM) and 100% in data set [6] (48 h, 30 µM, pH 1.6). This compound also gave a fraction unbound at 1 µM in data set [3] of 0.029. Besides, the IC50 in data set [5] (read-out: IC50, gal) was over 25 µM; in data set [5] (read-out: IC50, glu), over 25 µM.
With `CCc1nc2ncc(C)cn2c1C(=O)NCc1ccc(-c2cn3c(n2)CN(S(=O)(=O)C(F)(F)F)CC3)c(F)c1` [Compound 80], the “CLint Microsomes, Mouse (m)” value in data set [1] (1 μm) is 13.2 μL/Min/Mg. For the same compound, in [2] (1 μm), the “CLint Microsomes, Human (h)” value was 39.8 μL/Min/Mg. Also, the “chemical stability, % by LCMS” value in data set [6] (ACN/0.1N HCl (pH 1.6; 0 hr, rt)) is 100%; in [6] (ACN/0.1N HCl (pH 1.6; 48 hr, rt)), 100%; in data set [6] (ACN/0.1N NaOH (pH 9-10; 0 hr, rt)), 76.8%; in [6] (ACN/0.1N NaOH (pH 9-10; 48 hr, rt)) it was 16.8%; in data set [6] (DMSO (0 hr, rt)), 100%; in [6] (DMSO (48 hr, rt)) it was 100%. Also, in data set [4], the pIC50 came out at 8.06. For the same compound, the IC50 is over 200 µM in data set [5] (galactose medium (Glu/Gal mitotoxicity assay), read-out: IC50, gal) and over 200 µM in data set [5] (glucose medium (Glu/Gal mitotoxicity assay), read-out: IC50, glu).
Take `CCc1nc2ccc(C)cn2c1C(=O)NCc1ccc(-c2cc3n(n2)CCN(S(=O)(=O)C(F)(F)F)C3)cc1` [Compound 81]: the microsomal CLint at 1 µM is 74.8 µL/min/mg in [1] (setting [12]); over 347 µL/min/mg in data set [2]; 80.7 µL/min/mg in [8] (1 μm, read-out: CLint Microsomes, Rat (r)); 189 µL/min/mg in data set [10] (1 μm, read-out: CLint Microsomes, Dog (d)). The “chemical stability, % by LCMS” value worked out at 95% in data set [6] (0 h, 30 µM); 100% in data set [6] (48 h, 30 µM); 100% in data set [6] (48 h, 30 µM, pH 1.6). The IC50 in data set [5] (read-out: IC50, gal) was over 200 µM; in data set [5] (read-out: IC50, glu), over 200 µM.
Regarding `CCc1nc2ncc(C)cn2c1C(=O)NCc1ccc(-c2cc3n(n2)CCN(S(=O)(=O)C(F)(F)F)C3)c(F)c1` [Compound 82], the “chemical stability, % by LCMS” value in data set [6] (48 h, 30 µM) was 100%; in data set [6] (48 h, 30 µM, pH 1.6) it was 100%. In data set [7], the “MDCK AB+inh” value is reported as 16.2. The “Glu/Gal: Glu” value in [5] is on record as over 25. In addition, the IC50 in data set [5] (read-out: IC50, gal) was over 25 µM; in data set [5] (read-out: IC50, glu), over 25 µM. For the same compound, the “Glu/Gal: Gal” value in data set [5] is on record as over 25. For the same compound, the “AMES II” value in data set [9] came out at 1.
For `CCc1nc2ccc(Cl)cn2c1C(=O)NCc1ccc(N2CCC(c3ccc(OC(F)(F)F)cc3)CC2)cc1` [Compound Q203, Q203], the MIC50 in data set [11] is on record as 0.28 nM (≈ 0.156 ng/mL).

What is called fraction unbound is the share of the substance not bound to proteins or other matrix. Usually IC50 stands for the midpoint of a concentration-inhibition curve. By pIC50 is commonly meant the IC50 on a negative log10 scale, so that one unit is a factor of ten.
